Results as given in publication PMC6581923 (Journal of Molecular Neuroscience, 2018).
“Also recorded” adds a separate entry of the source.

Experiments:
Assay type in all cases: in vivo, rat (male)
[1] = Efficiency of Traversing Eye to Retina (EtE) of FITC labeled peptides given in eye drops
Experimental: In order to trace the drugs, peptides were labeled with fluorescein isothiocyanate (FITC) using a FITC Protein Labeling Kit from ChangRu Biotech Ltd. (Guangzhou, China) according to the manufacturer’s protocol. After the labeling reaction, gel filtration was used to remove the free FITC. In order to determine the amount of the residual free FITC, the peptides were submitted to ultrafiltration using Amicon Ultra – 0.5 mL (Millipore, USA) with a molecular sieve of 2000 Da. After centrifugation (1000×g, 10 min) the peptide was subjected to fluorescence measurements performed with the multi-wavelength scanner Victor 3 (GE, USA) at the excitation of 495 nm and the emission of 520 nm. Protein concentrations were determined using the K4000 Bradford Protein Quantification Kit (Innovative, Guangzhou, China). The labeling efficiency was calculated using the following formula: label efficiency (LE) = fluorescence value (FV)/peptide mass (mol) (PM), representing the fluorescence intensity (AU) per mol of peptide (mol).
Male rats with body weight from 160 to 180 g were purchased from the Medical and Experimental Animal Center (Guangdong, China). Rats were randomly assigned to one of the experimental groups (7 rats per group) and subjected to eye drops with FITC labeled peptides (100 nmol/kg) and PBS as control. Rats were sacrificed by anesthesia 2 h after the eye drop administration and the retina was separated, weighed, washed three times with PBS and divided into two parts. One part was prepared on the glass slide with glycerin and subjected to fluorescence microscopic observation of FITC with 495 nm excitation/520 nm emission. All images, focused on the left upper regions of the retina, were taken with 500 ms exposure time. The other part of the retina was subjected to grinding and ultrasonication in PBS at a concentration of 100 mg weight tissue per milliliter of PBS. The supernatant was collected by centrifugation and the fluorescence intensity in the supernatant (100 uL) was determined. The valid fluorescence intensity (FI) for each sample treated with FITC labeled peptide was corrected by subtracting the fluorescence value of the sample treated with PBS, which was used as a blank background. The Efficiency of Traversing Eye to Retina (EtE) was expressed as the percentages of the FITC labeled peptide mass in the retina to the total FITC labeled peptide mass. The EtE was calculated using the following formula: EtE = tFI/LE/PW × 100% (tFI presents the fluorescence intensity of retina (arbitration unit, AU); LE presents the label efficiency of each peptide which has been determined above; PW presents the peptide mass (mole)).
Fig. 1 The efficiency of FITC labeled PACAP/PACAP-TAT (a, b) and VIP/VIP-TAT (c, d) traversing to retina given in eye drops. The retina was separated 2 h after the eye drops and submitted to the fluorescence microscopic observation of FITC fluorescence signal (A, C) and the calculation of Efficiency of Traversing Eye to Retina (EtE) (b, d). The data are means ± SEM of four experiments

[2] = tested on: retina (BCCAO-induced retinopathy); experiment: Retinal layer thickness / morphology after bilateral carotid artery occlusion (BCCAO), eye drops
Experimental: (§1) Adult male rat litters were housed in the animal facility in individual cages in a 12 h light-dark cycle with food and water ad libitum. Animal housing, care and application of experimental procedures were in accordance with institutional guidelines under approved protocols (No: BA02/2000–26/2017, University of Pecs). Under isoflurane anesthesia, common carotid arteries were exposed on both sides through a midline incision and then ligated with a 3–0 filament. A group of animals (sham group) underwent all steps of the operating procedure except ligation of the carotid arteries. Immediately following the operation, the right eye of the animals was treated with derivatives of PACAP (PACAP-TAT /n = 17/ or VIP-TAT /n = 17/) eye drops (1 μg/drop). Dose and schedule of the eye drop treatments were based on our previous experiments (Werling et al. [2016]). In the experiment for histological analysis, the different derivatives were dissolved in benzalkonium solution for ophthalmic use (solutio ophthalmica cum benzalkonio (SOCB)). The left eye, serving as a control, was treated with vehicle containing neither PACAP-TAT nor VIP-TAT. Animals were treated for five consecutive days, twice a day with one drop of drug, under brief isoflurane anesthesia (max. 5 min).
(§2) Fourteen days after the operation, rats (n = 10 SHAM and n = 24 BCCAO) were killed with anesthetic and the eyes were processed for histology. The eyes were removed and the retinas were solved in phosphate buffered saline (PBS), fixed in 4% paraformaldehyde dissolved in 0.1 M phosphate buffer (PB) (Sigma, Budapest, Hungary) and embedded in Durcupan ACM resin (Sigma, Budapest, Hungary). Retinas were cut at 2 μm and stained with toluidine blue dye (Sigma, Hungary). Sections were mounted in DPX medium (Sigma, Hungary) and photographs were taken with a digital CCD camera using the Spot program. Central retinal areas within 1 mm from the optic nerve were used (n = 5 measurements from one tissue block). The following parameters were measured: (i) cross-section of the retina from the outer limiting membrane (OLM) to the inner limiting membrane (ILM), (ii) the width of individual retinal layers (outer nuclear layer [ONL], outer plexiform layer [OPL], inner nuclear layer [INL], inner plexiform layer [IPL]), (iii) the number of cells/100 μm section length in the GCL, and the (iv) number of cells/[…]. Results are presented as mean ± SEM. Statistical comparisons were made using the two-way ANOVA test followed by Tukey’s post hoc analysis.
(§3) Fig. 4 Quantification of retinal layers in SHAM+SOCB, in SHAM+PACAP-TAT, in BCCAO+SOCB, and in BCCAO+PACAP-TAT animals; the right eye was treated with PACAP-TAT eye drops, the left eye served as controls receiving only SOCB. Comparison of all retinal layers (a–e). […] Statistical significance (*p < 0.05 vs. SHAM+SOCB retinas, #p < 0.05 vs. BCCAO+SOCB retinas) was calculated by two-way ANOVA followed by Fischer’s post hoc test
as §3, with “6” for “4”, “SHAM+VIP-TAT,” for “SHAM+PACAP-TAT,”, “BCCAO+VIP-TAT” for “BCCAO+PACAP-TAT”, “VIP-TAT” for “PACAP-TAT”, “control” for “controls”

[3] = tested on: retina (BCCAO-induced retinopathy); experiment: Number of cells in retinal nuclear layers and GCL after BCCAO, eye drops; conditions: eye drops 1 μg/drop, twice a day, five days, vs BCCAO-induced degenerated retinas, 14 days
Experimental: as §1, §2
(§4) Fig. 5 Quantification of the number of cells/100 μm GCL length (a), the number of cells/500 μm^2 ONL (b) and INL (c) areas in SHAM+SOCB, in SHAM+PACAP-TAT, in BCCAO+SOCB, and in BCCAO+PACAP-TAT animals. Statistical significance (*p < 0.05 vs. SHAM+SOCB retinas, #p < 0.05 vs. BCCAO+SOCB retinas) was calculated by two-way ANOVA followed by Bonferroni’s post hoc test
as §4, with “Fig. 7” for “Fig. 5”, “in SHAM+VIP-TAT,” for “in SHAM+PACAP-TAT,”, “in BCCAO+VIP-TAT” for “in BCCAO+PACAP-TAT”

In the case of `CC[C@H](C)[C@H](NC(=O)CNC(=O)[C@H](CC(=O)O)NC(=O)[C@H](CO)NC(=O)[C@@H](N)Cc1c[nH]cn1)C(=O)N[C@@H](Cc1ccccc1)C(=O)N[C@H](C(=O)N[C@@H](CC(=O)O)C(=O)N[C@@H](CO)C(=O)N[C@@H](Cc1ccc(O)cc1)C(=O)N[C@@H](CO)C(=O)N[C@@H](CCCNC(=N)N)C(=O)N[C@@H](Cc1ccc(O)cc1)C(=O)N[C@@H](CCCNC(=N)N)C(=O)N[C@@H](CCCCN)C(=O)N[C@@H](CCC(N)=O)C(=O)N[C@@H](CCSC)C(=O)N[C@@H](C)C(=O)N[C@H](C(=O)N[C@@H](CCCCN)C(=O)N[C@@H](CCCCN)C(=O)N[C@@H](Cc1ccc(O)cc1)C(=O)N[C@@H](CC(C)C)C(=O)N[C@@H](C)C(=O)N[C@@H](C)C(=O)N[C@H](C(=O)N[C@@H](CC(C)C)C(=O)NCC(=O)N[C@@H](CCCCN)C(=O)N[C@@H](CCCNC(=N)N)C(=O)N[C@@H](Cc1ccc(O)cc1)C(=O)N[C@@H](CCCCN)C(=O)N[C@@H](CCC(N)=O)C(=O)N[C@@H](CCCNC(=N)N)C(=O)N[C@H](C(=O)N[C@@H](CCCCN)C(=O)N[C@@H](CC(N)=O)C(=O)N[C@@H](CCCCN)C(=O)NCC(=O)N[C@@H](CCCNC(=N)N)C(=O)N[C@@H](CCCCN)C(=O)N[C@@H](CCCCN)C(=O)N[C@@H](CCCNC(=N)N)C(=O)N[C@@H](CCCNC(=N)N)C(=O)N[C@@H](CCC(N)=O)C(=O)N[C@@H](CCCNC(=N)N)C(=O)N[C@@H](CCCNC(=N)N)C(=O)N[C@@H](CCCNC(=N)N)C(=O)N1CCC[C@H]1C(=O)N[C@@H](CCC(N)=O)C(=O)O)C(C)C)C(C)C)C(C)C)[C@@H](C)O` [PACAP-TAT], the “Efficiency of Traversing Eye to Retina (EtE)” value ([1]; FITC labeled peptides, eye drops 100 nmol/kg, retina separated 2 h after, fluorescence 495 nm excitation/520 nm emission, % of FITC labeled peptide mass in retina to total, means ± SEM of four experiments (7 rats per group)) is reported as 3.66 ± 0.67%, the “EtE relative to the untagged peptide” value ([1]; PACAP-TAT/VIP-TAT vs PACAP/VIP, respectively, eye drops 100 nmol/kg, 2 h) is reported as “about three-fold that of PACAP/VIP” and the “FITC fluorescence density per area unit in the retina” value ([1]; fluorescence microscopy of retina 2 h after eye drops of FITC labeled peptides (100 nmol/kg), vs PACAP/VIP) is reported as “much higher than in retinas treated with eye drops of PACAP/VIP”. For the same compound, the “OPL preservation after BCCAO” value ([2]; BCCAO + eye drops, OPL almost disappeared in several BCCAO-induced degenerated retinas) was “preserved”, the “Retinal degeneration in light microphotographs after BCCAO” value ([2]; BCCAO + eye drops, toluidine blue sections, 14 days, severe degeneration in BCCAO+SOCB) was “only mild degeneration” and the “Retinoprotective efficacy of eye drops, overall / compared with untagged peptide” value ([2]; BCCAO, topical eye drops in SOCB) was “attenuate ischemic retinal degeneration via the PAC1 receptor; also recorded: did not prove to have significantly higher retinoprotective efficacy than untagged PACAP”. For the same compound, the “Retinal layer thickness (OLM-ILM, ONL, OPL, INL, IPL) after BCCAO” value ([2]; BCCAO, eye drops 1 μg/drop, twice a day, five consecutive days, in SOCB, right eye, left eye SOCB control, 14 days, p < 0.05 vs. BCCAO+SOCB) was “significant amelioration in all retinal layers; also recorded: improved the structure of all the retinal layers”, the “Change of retinal thickness in sham animals” value ([2]; eye drops alone in sham animals, 1 μg/drop, twice a day, five consecutive days, in SOCB, histology 14 days after operation) was “did not cause any changes in the retinal thickness” and the “Number of cells in the GCL/100 μm after BCCAO” value [3] was “significantly higher compared to the BCCAO-induced degenerated retinas”. The “Number of cells in the INL/500 μm2 after BCCAO” value [3] was “significantly higher compared to the BCCAO-induced degenerated retinas” and the “Number of cells in the ONL/500 μm2 after BCCAO” value [3] was “significantly higher compared to the BCCAO-induced degenerated retinas”.
